The target of data set [1] is T1, Cholinesterase (Homo sapiens, UniProt P06276). In words: Inhibition of human BuChE using butyrylthiocholine iodide as substrate incubated for 1 min by spectrophotometry based Ellman's method. A general note: Ellman's reagent forms a yellow product with free thiols.
In data set [2] the target is T2, Acetylcholinesterase (Homo sapiens, UniProt P22303). In words: Inhibition of human AChE using acetylthiocholine iodide as substrate incubated for 1 min by spectrophotometry based Ellman's method.
T2 sequence (P22303 whole entry): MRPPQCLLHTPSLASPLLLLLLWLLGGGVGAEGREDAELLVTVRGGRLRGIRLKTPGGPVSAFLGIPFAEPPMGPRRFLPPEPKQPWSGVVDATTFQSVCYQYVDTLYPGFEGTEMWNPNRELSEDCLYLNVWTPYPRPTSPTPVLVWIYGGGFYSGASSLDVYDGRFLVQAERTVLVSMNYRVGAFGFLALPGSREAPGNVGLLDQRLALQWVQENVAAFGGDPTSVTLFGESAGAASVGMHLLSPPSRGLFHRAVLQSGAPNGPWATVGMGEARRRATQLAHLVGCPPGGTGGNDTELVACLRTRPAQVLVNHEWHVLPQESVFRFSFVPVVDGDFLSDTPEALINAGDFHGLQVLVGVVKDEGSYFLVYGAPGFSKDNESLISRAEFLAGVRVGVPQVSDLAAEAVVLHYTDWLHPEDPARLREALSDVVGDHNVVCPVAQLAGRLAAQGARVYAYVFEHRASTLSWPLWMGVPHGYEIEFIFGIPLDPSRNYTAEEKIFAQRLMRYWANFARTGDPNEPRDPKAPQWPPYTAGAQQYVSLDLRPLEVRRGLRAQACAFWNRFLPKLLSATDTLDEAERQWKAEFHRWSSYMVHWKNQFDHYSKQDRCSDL
In data set [3] the target is T1, Cholinesterase. The experiment in a line: Inhibition of recombinant human BuChE using butyrylthiocholine iodide as substrate at 10 uM preincubated with enzyme for 5 mins followed by substrate addition and measured after 1 min by Ellman's method relative to control. Conditions: time 6.0 min.
For another data set, the species on record is Homo sapiens. In words: Selectivity ratio of IC50 for inhibition of human AChE using acetylthiocholine as substrate to IC50 for inhibition of human BuChE using butyrylthiocholine iodide as substrate.
A short description of the next data set: in vitro. Conditions: PAMPA. On the technique in general: PAMPA measures passive passage across an artificial lipid membrane.
In data set [4] the target is T1, Cholinesterase. In words: Inhibition of recombinant human BuChE using butyrylthiocholine iodide as substrate preincubated with enzyme for 5 mins followed by substrate addition and measured after 1 min by Ellman's method.
Data set [5] has as its target T2, Acetylcholinesterase. In words: Inhibition of recombinant human AChE using acetylthiocholine iodide as substrate preincubated with enzyme for 5 mins followed by substrate addition and measured after 1 min by Ellman's method.
Data set [6] can be described thus: Cytotoxicity against human SH-SY5Y cells assessed as inhibition of cell growth incubated for 24 hrs by MTT assay. The data set is classed as toxicity, cell-based. A general note: Formazan colour is commonly taken as a measure of viable cells.
Data set [7] has as its target T1, Cholinesterase. The experiment in a line: Competitive inhibition of human BuChE using butyrylthiocholine iodide as substrate assessed as inhibition constant preincubated with enzyme for 5 mins followed by substrate addition and measured after 1 min by Lineweaver-Burk plot based Ellman's method.
Data set [8] in a line: Cytotoxicity against human HepG2 cells assessed as inhibition of cell growth incubated for 24 hrs by MTT assay. The format is toxicity, cell-based.
Data set [9] addresses T1, Cholinesterase. The experiment in a line: Competitive inhibition of human BuChE using butyrylthiocholine iodide as substrate assessed as increase in Km with constant apparent Vmax preincubated with enzyme for 5 mins followed by substrate addition and measured after 1 min by Lineweaver-Burk plot based Ellman's method. Conditions: time 6.0 min.

These results are taken from ChEMBL document CHEMBL5360557 (Eur J Med Chem, 2023).

Activity calls are given as the source filed them. No cut-off for these calls is given here. Some results are limits rather than exact numbers.

T1 sequence (P06276 whole entry): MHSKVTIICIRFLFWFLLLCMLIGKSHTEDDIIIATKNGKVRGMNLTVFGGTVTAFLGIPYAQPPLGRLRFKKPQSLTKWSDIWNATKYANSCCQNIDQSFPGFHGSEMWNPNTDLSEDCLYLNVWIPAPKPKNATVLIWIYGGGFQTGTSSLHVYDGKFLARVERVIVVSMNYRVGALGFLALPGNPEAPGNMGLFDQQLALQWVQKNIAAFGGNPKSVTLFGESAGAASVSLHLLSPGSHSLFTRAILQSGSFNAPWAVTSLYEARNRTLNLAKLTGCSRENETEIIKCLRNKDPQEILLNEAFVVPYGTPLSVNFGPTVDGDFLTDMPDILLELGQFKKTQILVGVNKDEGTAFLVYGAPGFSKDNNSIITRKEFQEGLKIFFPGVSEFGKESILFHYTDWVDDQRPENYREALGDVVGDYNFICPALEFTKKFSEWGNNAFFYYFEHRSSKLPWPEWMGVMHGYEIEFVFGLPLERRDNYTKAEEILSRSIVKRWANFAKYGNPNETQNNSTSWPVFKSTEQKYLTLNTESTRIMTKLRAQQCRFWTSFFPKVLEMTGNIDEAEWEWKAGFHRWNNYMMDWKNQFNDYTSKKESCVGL
Description for in vitro: Permeability of the compound incubated for 3 to 6 hrs by PAMPA-BBB assay

As usually defined, the IC50 is the concentration that inhibits the measured activity by half. `COc1cc(CN(C)CCc2ccc(O)cc2)c(-c2cccc3c2N(C)CC3)cc1OC`: the IC50 against Cholinesterase [1] was 0.91 µM; on Acetylcholinesterase [2] it was over 100 µM.
In general, inhibition refers to the share of the control response that was lost under treatment. Usually Papp stands for the rate of passage across a membrane or cell layer, normalised by area and donor concentration. For the compound `COc1cccc(CNCCc2ccc(O)cc2)c1OCc1ccccc1`, the inhibition at Cholinesterase [3] turned out to be 94%. Besides, the Ratio IC50 in the data set listed under Homo sapiens was over 42. The Papp in “in vitro” came to 19 ×10⁻⁶ cm/s. Further, the IC50 on Cholinesterase [4] was 0.2 µM; at Acetylcholinesterase [5], over 10 µM.
In general, Ki refers to a dissociation constant, usually derived from enzyme kinetics or from competition with a known ligand. As for `COc1cccc(CN(CCCc2ccccc2F)C2CCC2)c1OCc1ccccc1`, the inhibition at Cholinesterase [3] amounted to 99%. In addition, the IC50 at 24 h in data set [6] came to 87 µM; in data set [8], 76 µM. Moreover, the apparent permeability (Papp) in “in vitro” was 60 ×10⁻⁶ cm/s. The Ki at Cholinesterase [7] came to 0.00404 µM. The IC50 on Cholinesterase [4] was 0.004 µM; on Acetylcholinesterase [5] it was over 10 µM. Moreover, at Cholinesterase [9], the inhibition result is “Active”.
As to `C=CCCN(CCCc1ccccc1)Cc1cccc(OC)c1OCc1ccccc1`, the inhibition at Cholinesterase [3] amounted to 97%. In addition, the concentration for half-maximal inhibition (IC50) at 24 h is 131 µM in data set [6] and 92 µM in [8]. The compound further registered a Papp in the data set “in vitro” of 33 ×10⁻⁶ cm/s. The IC50 on Cholinesterase [4] is 0.07 µM; at Acetylcholinesterase [5], over 10 µM.
For the compound `C=CCN(CCCc1ccccc1)Cc1cccc(OC)c1OCc1ccccc1`, the inhibition at Cholinesterase [3] worked out at 98%. The IC50 at 24 h in data set [6] and in data set [8] was over 200 µM in each case. Further, in “in vitro”, the Papp came out at 28 ×10⁻⁶ cm/s. The IC50 at Cholinesterase [4] is 0.04 µM; on Acetylcholinesterase [5] it was over 10 µM.
Take `CCCN(CCCc1ccc(O)cc1)Cc1cccc(OC)c1OCc1ccccc1`: on Cholinesterase [3], the inhibition turned out to be 98%. Further, the concentration for half-maximal inhibition (IC50) at 24 h in [6] came to 44 µM; in [8], 31 µM. In addition, the Papp in the data set “in vitro” was found to be 16 ×10⁻⁶ cm/s. Also, the IC50 at Cholinesterase [4] is 0.07 µM; at Acetylcholinesterase [5], over 10 µM.
Consider `CCCN(CCCc1ccccc1)Cc1cccc(OC)c1OCc1ccccc1`, for which the inhibition at Cholinesterase [3] stood at 98%. The values for the concentration for half-maximal inhibition (IC50) at 24 h in data set [6] and in data set [8] were over 63 µM and 48 µM, respectively. In the data set “in vitro”, this compound had a Papp of 32 ×10⁻⁶ cm/s. In addition, the IC50 on Cholinesterase [4] was 0.04 µM; on Acetylcholinesterase [5], over 10 µM.
On Acetylcholinesterase [2], `CN(CCc1ccc(O)cc1)Cc1cc2c(cc1-c1cccc3c1N(C)CC3)OCO2` gave a concentration for half-maximal inhibition (IC50) of over 100 µM.
As for `COc1cccc(CN(CCCc2ccccc2F)C2CCCC2)c1OCc1ccccc1`, at Cholinesterase [3], the inhibition was 99%. Besides, the half-inhibitory concentration (IC50) at 24 h amounted to 55 µM in [6] and 28 µM in data set [8]. The compound also yielded an apparent permeability (Papp) in “in vitro” of 61 ×10⁻⁶ cm/s. Also, the IC50 at Cholinesterase [4] was 0.006 µM; on Acetylcholinesterase [5] it was over 10 µM.
Regarding `CCCN(CCCc1ccccc1F)Cc1cccc(OC)c1OCc1ccccc1`, the inhibition on Cholinesterase [3] was determined as 97%. The IC50 at 24 h in [6] was 49 µM; in data set [8] it was 33 µM. The Papp in the data set “in vitro” was 85 ×10⁻⁶ cm/s. In addition, the concentration for half-maximal inhibition (IC50) on Cholinesterase [4] was 0.02 µM; on Acetylcholinesterase [5], over 10 µM.
As to `CCCN(C/C=C/c1ccccc1)Cc1cccc(OC)c1OCc1ccccc1`, the inhibition on Cholinesterase [3] is 97%. In addition, the IC50 at 24 h in data set [6] is 174 µM; in data set [8], 36 µM. For the same compound, the Papp in “in vitro” was found to be 41 ×10⁻⁶ cm/s. The half-inhibitory concentration (IC50) at Cholinesterase [4] is 0.04 µM; on Acetylcholinesterase [5], over 10 µM.
